From patent publication US8629112B2, “Template-fixed peptidomimetics with CXCR7 modulating activity” (priority 2010, dated 2014)
Square brackets hold non-standard residues; d marks the D form. Peptide text beside a SMILES is read from it. 1Nal = N[C@@H](Cc1cccc2ccccc12)C(=O)O; d1Nal = N[C@H](Cc1cccc2ccccc12)C(=O)O; Tic = O=C(O)[C@@H]1Cc2ccccc2CN1; dPip = O=C(O)[C@H]1CCCCN1; Aze = O=C(O)[C@@H]1CCN1; Dab = NCC[C@H](N)C(=O)O; Abu = CC[C@H](N)C(=O)O

Molecular target: T1, CXCR7 (Homo sapiens, UniProt P25106)
T1 construct: host or cells: CHO (PathHunter CHO-CXCR7 β-arrestin cells)
T1 sequence (P25106 whole entry): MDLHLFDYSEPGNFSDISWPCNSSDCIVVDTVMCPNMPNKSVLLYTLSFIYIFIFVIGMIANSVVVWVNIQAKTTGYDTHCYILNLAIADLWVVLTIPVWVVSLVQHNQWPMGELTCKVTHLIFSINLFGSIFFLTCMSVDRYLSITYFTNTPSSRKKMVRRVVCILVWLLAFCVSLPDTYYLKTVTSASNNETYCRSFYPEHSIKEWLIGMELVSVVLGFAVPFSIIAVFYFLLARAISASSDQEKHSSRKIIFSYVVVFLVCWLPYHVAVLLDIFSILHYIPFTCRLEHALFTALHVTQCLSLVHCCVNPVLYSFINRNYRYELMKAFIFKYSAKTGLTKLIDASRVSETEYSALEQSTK
Assay: CXCR7 β-arrestin recruitment assay (PathHunter CHO-CXCR7, agonistic assay)
Format: cell-based
Conditions: CHO CXCR7 β-arrestin cells, agonistic assay, 90 min at 37° C., chemiluminescence; read-out: β-Arrestin EC50
Procedure: Lyophilized peptides were weighed on a Microbalance (Mettler MX5) and dissolved in DMSO to a final concentration of 10 mM unless otherwise stated. Stock solutions were kept at +4° C., and protected from light.
2.2 CXCR7 β-Arrestin Recruitment Assay
The PathHunter CHO-CXCR7 (DiscoverX) assay was performed according to the manufacturer's protocol. In brief, CHO CXCR7 β-arrestin cells were seeded at a density of 5000 cells per well in 40 μl of F12 medium in a 96-half volume well black culture plate and incubated overnight at 37° C. in a humidified atmosphere with 5% CO2. The next day, serial dilutions of PEM compounds have been prepared in DMSO and subsequently diluted in HBSS buffer containing 0.1% BSA.
For agonistic assay, 10 μl of compound solution or a solution of stromal cell-derived factor-1 (SDF-1) as positive control was added to the cells with a final DMSO concentration of 1% (v/v). The plate was incubated for 90 min at 37° C. in 5% CO2 incubator with gentle shaking (300 rpm) before addition of 40 ul of detection reagent per well. Reaction was developed 90 min at room temperature in the dark with shaking, and chemiluminescence was measured with a Topcount (Perkin Elmer) luminescence counter.

| Structure (SMILES) | EC50 [nM] |
| --- | --- |
| NCC[C@@H]1NC(=O)[C@H](Cc2c[nH]c3ccccc23)NC(=O)[C@@H](Cc2ccccc2)NC(=O)[C@H](Cc2c[nH]c3ccccc23)NC(=O)[C@@H]2Cc3ccccc3CN2C(=O)[C@H]2CCCN2C1=O [compound 22, cyclo(-Trp-^DPhe-Trp-Dab-^DPro-Tic-)] (cyclo([Dab][dP][Tic]W[dF]W)) | 12.6 ± 1.6 |
| O=C1N[C@@H](Cc2ccc(O)cc2)C(=O)N2CCC[C@@H]2C(=O)N2Cc3ccccc3C[C@H]2C(=O)N[C@@H](Cc2c[nH]c3ccccc23)C(=O)N[C@H](Cc2ccccc2)C(=O)N[C@H]1Cc1c[nH]c2ccccc12 [compound 24, cyclo(-Trp-^DPhe-Trp-Tyr-^DPro-Tic-)] (cyclo([Tic]W[dF]WY[dP])) | 94.5 ± 54.1 |
| N=C(N)NCCC[C@@H]1NC(=O)[C@H](Cc2c[nH]c3ccccc23)NC(=O)[C@@H](CCCNC(=N)N)NC(=O)[C@H](Cc2cccc3ccccc23)NC(=O)[C@@H]2Cc3ccccc3CN2C(=O)[C@H]2CCCN2C1=O [compound 28, cyclo(-1Nal-^DArg-Trp-Arg-^DPro-Tic-)] (cyclo([1Nal][dR]WR[dP][Tic])) | 280 ± 115 |
| CC[C@H](C)[C@@H]1NC(=O)[C@@H](Cc2c[nH]cn2)NC(=O)[C@H](Cc2cccc3ccccc23)NC(=O)[C@@H]2Cc3ccccc3CN2C(=O)[C@H]2CCCN2C(=O)[C@H](CCCNC(=N)N)NC1=O [compound 29, cyclo(-1Nal-^DHis-Ile-Arg-^DPro-Tic-)] (cyclo([1Nal][dH]IR[dP][Tic])) | 347 ± 110 |
| CC[C@@H]1NC(=O)[C@@H]2Cc3ccccc3CN2C(=O)[C@H]2CCCN2C(=O)[C@H](Cc2c[nH]c3ccccc23)NC(=O)[C@H](CCCNC(=N)N)NC(=O)[C@@H](CCCNC(=N)N)NC1=O [compound 30, cyclo(-Abu-^DArg-Arg-Trp-^DPro-Tic-)] (cyclo([Abu][dR]RW[dP][Tic])) | 97.5 ± 6.3 |
| CC[C@H](C)[C@@H]1NC(=O)[C@@H]2Cc3ccccc3CN2C(=O)[C@H]2CCCN2C(=O)[C@H](CCCNC(=N)N)NC(=O)[C@H](Cc2c[nH]c3ccccc23)NC(=O)[C@@H](Cc2c[nH]cn2)NC1=O [compound 32, cyclo(-Ile-^DHis-Trp-Arg-^DPro-Tic-)] (cyclo(I[dH]WR[dP][Tic])) | 70.8 ± 14.3 |
| CC[C@H](C)[C@@H]1NC(=O)[C@@H](CCCNC(=N)N)NC(=O)[C@H]([C@@H](C)CC)NC(=O)[C@@H]2Cc3ccccc3CN2C(=O)[C@H]2CCCN2C(=O)[C@H](CCCNC(=N)N)NC1=O [compound 33, cyclo(-Ile-^DArg-Ile-Arg-^DPro-Tic-)] (cyclo(IR[dP][Tic]I[dR])) | 34.3 ± 3.6 |
| O=C1N[C@@H](Cc2c[nH]c3ccccc23)C(=O)N2CCC[C@@H]2C(=O)N2Cc3ccccc3C[C@H]2C(=O)N[C@@H](Cc2c[nH]cn2)C(=O)N[C@H](Cc2cccc3ccccc23)C(=O)N[C@H]1Cc1c[nH]cn1 [compound 39, cyclo(-His-^D1Nal-His-Trp-^DPro-Tic-)] (cyclo(HW[dP][Tic]H[d1Nal])) | 269 ± 80.1 |
| CC[C@H](C)[C@@H]1NC(=O)[C@@H](CCCNC(=N)N)NC(=O)[C@H](Cc2cccc3ccccc23)NC(=O)[C@@H]2CCN2C(=O)[C@H]2CCCN2C(=O)[C@H](CCCNC(=N)N)NC1=O [compound 43, cyclo(-1Nal-^DArg-Ile-Arg-^DPro-Azt-)] (cyclo([1Nal][dR]IR[dP][Aze])) | 41.2 ± 8.3 |
| N=C(N)NCCC[C@@H]1NC(=O)[C@H](Cc2c[nH]c3ccccc23)NC(=O)[C@@H](CCCNC(=N)N)NC(=O)[C@H](Cc2cccc3ccccc23)NC(=O)[C@@H]2CCN2C(=O)[C@H]2CCCN2C1=O [compound 44, cyclo(-1Nal-^DArg-Trp-Arg-^DPro-Azt-)] (cyclo([1Nal][dR]WR[dP][Aze])) | 146 ± 81.8 |
| N=C(N)NCCC[C@@H]1NC(=O)[C@H](Cc2ccc(O)cc2)NC(=O)[C@@H](Cc2c[nH]cn2)NC(=O)[C@H](Cc2cccc3ccccc23)NC(=O)[C@@H]2CCN2C(=O)[C@H]2CCCN2C1=O [compound 45, cyclo(-1Nal-^DHis-Tyr-Arg-^DPro-Azt-)] (cyclo([1Nal][dH]YR[dP][Aze])) | 44.4 ± 25.4 |
| CC[C@H](C)[C@@H]1NC(=O)[C@H](Cc2c[nH]c3ccccc23)NC(=O)[C@@H](CCCNC(=N)N)NC(=O)[C@H](Cc2c[nH]c3ccccc23)NC(=O)[C@@H]2CCN2C(=O)[C@H]2CCCN2C1=O [compound 46, cyclo(-Trp-^DArg-Trp-Ile-^DPro-Azt-)] (cyclo([Aze]W[dR]WI[dP])) | 208 ± 50.2 |
| CC[C@H](C)[C@@H]1NC(=O)[C@@H](Cc2c[nH]cn2)NC(=O)[C@H](Cc2c[nH]c3ccccc23)NC(=O)[C@@H]2CCN2C(=O)[C@H]2CCCN2C(=O)[C@H](CCCNC(=N)N)NC1=O [compound 47, cyclo(-Trp-^DHis-Ile-Arg-^DPro-Azt-)] (cyclo([Aze]W[dH]IR[dP])) | 344.5 ± 0.6 |
| CC[C@H](C)[C@@H]1NC(=O)[C@@H](CCCNC(=N)N)NC(=O)[C@H](Cc2c[nH]c3ccccc23)NC(=O)[C@@H]2CCN2C(=O)[C@H]2CCCN2C(=O)[C@H](CCCNC(=N)N)NC1=O [compound 50, cyclo(-Trp-^DArg-Ile-Arg-^DPro-Azt-)] (cyclo([Aze]W[dR]IR[dP])) | 47.7 ± 21.9 |
| N=C(N)NCCC[C@@H]1NC(=O)[C@H](Cc2c[nH]c3ccccc23)NC(=O)[C@@H](CCCNC(=N)N)NC(=O)[C@H](Cc2c[nH]c3ccccc23)NC(=O)[C@@H]2CCN2C(=O)[C@H]2CCCN2C1=O [compound 51, cyclo(-Trp-^DArg-Trp-Arg-^DPro-Azt-)] (cyclo([Aze]W[dR]WR[dP])) | 170 ± 22.5 |

Other lines, results leading:

| EC50 [nM] | Structure (SMILES) |
| --- | --- |
| 226 ± 13.2 | N=C(N)NCCC[C@@H]1NC(=O)[C@H](Cc2c[nH]cn2)NC(=O)[C@@H](Cc2c[nH]c3ccccc23)NC(=O)[C@H](Cc2c[nH]cn2)NC(=O)[C@@H]2Cc3ccccc3CN2C(=O)[C@H]2CCCN2C1=O [compound 31, cyclo(-His-^DTrp-His-Arg-^DPro-Tic-)] (cyclo(HR[dP][Tic]H[dW])) |
| 317 ± 360 | CC[C@H](C)[C@@H]1NC(=O)[C@@H]2Cc3ccccc3CN2C(=O)[C@H]2CCCN2C(=O)[C@H](CCCNC(=N)N)NC(=O)[C@H](Cc2c[nH]cn2)NC(=O)[C@@H](Cc2c[nH]c3ccccc23)NC1=O [compound 34, cyclo(-Ile-^DTrp-His-Arg-^DPro-Tic-)] (cyclo(HR[dP][Tic]I[dW])) |
| 234 ± 132 | N=C(N)NCCC[C@@H]1NC(=O)[C@@H]2Cc3ccccc3CN2C(=O)[C@H]2CCCN2C(=O)[C@H](CCCNC(=N)N)NC(=O)[C@H](Cc2c[nH]cn2)NC(=O)[C@@H](Cc2c[nH]c3ccccc23)NC1=O [compound 35, cyclo(-Arg-^DTrp-His-Arg-^DPro-Tic-)] (cyclo(HR[dP][Tic]R[dW])) |
| 144 ± 136 | N=C(N)NCCC[C@@H]1NC(=O)[C@@H]2Cc3ccccc3CN2C(=O)[C@H]2CCCN2C(=O)[C@H](CCCNC(=N)N)NC(=O)[C@H](Cc2c[nH]c3ccccc23)NC(=O)[C@@H](Cc2c[nH]cn2)NC1=O [compound 36, cyclo(-Arg-^DHis-Trp-Arg-^DPro-Tic-)] (cyclo(R[dH]WR[dP][Tic])) |
| 348 ± 55.6 | N=C(N)NCCC[C@@H]1NC(=O)[C@H](Cc2c[nH]cn2)NC(=O)[C@@H](CCCNC(=N)N)NC(=O)[C@H](Cc2c[nH]c3ccccc23)NC(=O)[C@@H]2Cc3ccccc3CN2C(=O)[C@H]2CCCN2C1=O [compound 37, cyclo(-Trp-^DArg-His-Arg-^DPro-Tic-)] (cyclo(HR[dP][Tic]W[dR])) |
| 217 ± 12.5 | N=C(N)NCCC[C@H]1NC(=O)[C@H](Cc2c[nH]c3ccccc23)NC(=O)[C@@H]2Cc3ccccc3CN2C(=O)[C@H]2CCCN2C(=O)[C@H](Cc2c[nH]c3ccccc23)NC(=O)[C@H](Cc2c[nH]cn2)NC1=O [compound 38, cyclo(-Trp-^DArg-His-Trp-^DPro-Tic-)] (cyclo(HW[dP][Tic]W[dR])) |
| 78.7 ± 0.9 | N=C(N)NCCC[C@@H]1NC(=O)[C@H](Cc2c[nH]c3ccccc23)NC(=O)[C@@H](Cc2ccccc2)NC(=O)[C@H](Cc2c[nH]c3ccccc23)NC(=O)[C@@H]2CCCN2C(=O)[C@H]2CCCCN2C1=O [compound 41, cyclo(-Trp-^DPhe-Trp-Arg-^DPip-Pro-)] (cyclo(PW[dF]WR[dPip])) |
| 342 ± 46.8 | N=C(N)NCCC[C@@H]1NC(=O)[C@H](Cc2c[nH]c3ccccc23)NC(=O)[C@@H](Cc2c[nH]cn2)NC(=O)[C@H](Cc2c[nH]c3ccccc23)NC(=O)[C@@H]2CCN2C(=O)[C@H]2CCCN2C1=O [compound 48, cyclo(-Trp-^DHis-Trp-Arg-^DPro-Azt-)] (cyclo([Aze]W[dH]WR[dP])) |
